We go through 25 compounds from paper PMC8041433 (Environmental Health Perspectives, 2021).

Assay [1] addresses AChE in SH-SY5Y cells (Homo sapiens, UniProt P22303). Description: cell-based.
The target in assay [2] is T1, recombinant human AChE (Homo sapiens, UniProt P22303).
For assay [3], the target named is T1, recombinant human AChE. In words: biochemical.

Molecules are shown by their SMILES. Several values for one entry are separate records, joined by “and”; a condition that tells them apart may be missing. Equal values may be shown once. Where a name gives a salt, the structure may show the parent alone. Read-outs that look alike come from different tables or passages of the source.

T1 sequence (P22303 32-614): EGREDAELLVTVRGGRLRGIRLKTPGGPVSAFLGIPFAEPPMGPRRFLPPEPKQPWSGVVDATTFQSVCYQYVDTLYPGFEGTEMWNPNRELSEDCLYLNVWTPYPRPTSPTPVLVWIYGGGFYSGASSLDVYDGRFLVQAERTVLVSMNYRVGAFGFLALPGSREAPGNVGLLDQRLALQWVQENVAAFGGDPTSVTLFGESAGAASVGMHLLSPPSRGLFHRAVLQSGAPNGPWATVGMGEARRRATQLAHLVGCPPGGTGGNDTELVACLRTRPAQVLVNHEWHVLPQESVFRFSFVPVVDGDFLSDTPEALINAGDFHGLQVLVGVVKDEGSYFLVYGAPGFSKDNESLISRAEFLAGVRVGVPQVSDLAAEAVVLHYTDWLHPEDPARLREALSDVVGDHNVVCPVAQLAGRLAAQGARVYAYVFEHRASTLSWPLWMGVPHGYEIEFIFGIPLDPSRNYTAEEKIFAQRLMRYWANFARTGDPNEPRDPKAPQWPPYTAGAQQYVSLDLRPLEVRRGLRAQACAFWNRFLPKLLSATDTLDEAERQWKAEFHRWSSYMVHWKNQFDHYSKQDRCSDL
Chain of AChE in SH-SY5Y cells (P22303 32-614): as above

As a reminder, the IC50 is the concentration at which inhibition is half-maximal. For `COc1ccc2c(c1OC)CN1CCc3cc4c(cc3[C@@H]1C2)OCO4` [Canadine], the “CC-v2 (curve classes)” value in assay [1] was -1.1 and -2.1; in assay [2], -3; in assay [3] it was -1.1. Moreover, the IC50 in assay [1] (IC50 (uM)) is 8.71 µM and 11 µM and 9.77 µM. The results for the Efficacy in assay [2] and in assay [3] were -45.32 and -74.441, respectively.
On to `Nc1ccc(N)c(Cl)c1.O=S(=O)(O)O` [2-Chloro-1,4-diaminobenzene sulfate], for which the “CC-v2 (curve classes)” value was -1.1 and -2.1 in assay [1]; 4 in assay [2]; -1.1 in assay [3]. The IC50 is 22.4 µM and 20 µM in assay [1] (read-out: IC50); 8.94 µM in assay [3] (read-out: IC50). Besides, the Efficacy was -13.066 in assay [2] and -68.64 in assay [3].
As for `O=C(O)/C=C\C(=O)O.O=C(O)/C=C\C(=O)O.c1cc(CN2CCCCC2)cc(OCCCNc2nc3ccccc3s2)c1` [Zolantidine dimaleate], the figures for the “CC-v2 (curve classes)” value in assay [1], in assay [2] and in assay [3] were -2.1, 4 and -2.1, respectively. The IC50 in assay [1] (read-out: IC50) is 13.8 µM and 15.5 µM; in assay [3] (read-out: IC50), 27.5 µM. The Efficacy in assay [2] is recorded as 0; in assay [3], -71.468.
With `Nc1c(NC/C=C\COc2cc(CN3CCCCC3)ccn2)c(=O)c1=O` [Pibutidine], the figures for the “CC-v2 (curve classes)” value in assay [1], in assay [2] and in assay [3] were -2.1, 4 and -2.2, respectively. Moreover, the IC50 in assay [1] (IC50 (uM)) is 13.5 µM and 15.1 µM; in assay [3] (IC50 (uM)) it was 15.1 µM. For the same compound, the values for the Efficacy in assay [2] and in assay [3] were 0 and -32.846, respectively.
As to `Cc1ccc(S(=O)(=O)Oc2ccc(N=Nc3ccc(-c4ccc(N=Nc5c(O)ccc6cc(S(=O)(=O)[O-])cc(S(=O)(=O)[O-])c56)c(C)c4)cc3C)cc2)cc1.[Na+].[Na+]` [C.I. Acid Red 114], the results for the “CC-v2 (curve classes)” value in assay [1], in assay [2] and in assay [3] were 4, 4 and -1.1, respectively. Besides, the Efficacy in assay [2] is 22.5 and 26.805.
In the case of `CC(C)C[C@H]1C(=O)N2CCC[C@H]2[C@]2(O)O[C@](NC(=O)[C@@H]3C=C4c5cccc6[nH]c(Br)c(c56)C[C@H]4N(C)C3)(C(C)C)C(=O)N12` [Bromocriptine mesylate], the “CC-v2 (curve classes)” value in assay [1] is reported as -1.1; in assay [2], 4; in assay [3] it was -1.1. Further, the IC50 in assay [1] (IC50 (uM)) is 5.38 µM and 2.7 µM. Also, the Efficacy in assay [2] was 0; in assay [3] it was -70.597.
With `C[C@H]1[C@@H]2Cc3ccc(O)cc3[C@@]1(C)CCN2C.C[C@H]1[C@@H]2Cc3ccc(O)cc3[C@@]1(C)CCN2C.O=C(O)/C=C/C(=O)O` [(+)-Metazocine fumarate (2:1)], the “CC-v2 (curve classes)” value is reported as -1.1 in assay [1], -2.1 in assay [2] and -2.1 in assay [3]. Besides, the IC50 in assay [1] (read-out: IC50) was 8.52 µM and 10.7 µM and 15.2 µM; in assay [2], 191 µM; in assay [3] (read-out: IC50) it was 33.9 µM. Further, the results for the Efficacy in assay [2] and in assay [3] were -75.846 and -92.558, respectively.
Take `Cc1ccc2c(c1)OCC(=O)CO2` [7-Methyl-2H-1,5-benzodioxepin-3(4H)-one]: the “CC-v2 (curve classes)” value in assay [1] is -2.1; in assay [2] it was 4; in assay [3], -2.2. In addition, the IC50 in assay [1] (read-out: IC50) is 35.6 µM and 31.7 µM; in assay [3] (read-out: IC50), 79.6 µM. The Efficacy in assay [2] is 0; in assay [3], -48.628.
`COCCCN1CCC(NC(=O)c2cc(Cl)c(N)c3c2OCC3)CC1` [Prucalopride]: the “CC-v2 (curve classes)” value in assay [1] is given as -2.1; in assay [2], 4; in assay [3], -2.4. The compound further gave an IC50 in assay [1] (IC50 (uM)) of 17.4 µM. Moreover, the Efficacy in assay [2] is listed as 0; in assay [3], -37.421.
Turning to `C[n+]1cc2c3c(ccc2c2ccc4cc5c(cc4c21)OCO5)OCO3` [Sanguinarine], the “CC-v2 (curve classes)” value is -2.1 in assay [1], 4 in assay [2] and -2.2 in assay [3]. The IC50 was 15.1 µM and 12 µM and 10.7 µM in assay [1] (IC50 (uM)); 16.9 µM in assay [3] (IC50 (uM)). The Efficacy is -7.894 in assay [2] and -68.744 in assay [3].
As for `COc1cc(C(=O)NCc2ccc(OCCN(C)C)cc2)cc(OC)c1OC` [Trimethobenzamide hydrochloride], the “CC-v2 (curve classes)” value is -2.1 and -1.1 in assay [1]; 4 in assay [2]; -1.1 in assay [3]. Besides, the Efficacy in assay [2] is recorded as -14.276; in assay [3] it was -75.922.
For `CCCN[C@H]1CCc2nc(N)sc2C1` [Pramipexole dihydrochloride monohydrate], the results for the “CC-v2 (curve classes)” value in assay [1], in assay [2] and in assay [3] were -2.1, 4 and 4, respectively. Further, the Efficacy in assay [2] is recorded as -16.414; in assay [3], -20.242.
As for `CCOP(=S)(Oc1ccc([N+](=O)[O-])cc1)c1ccccc1` (stereo not drawn) [EPN], the “CC-v2 (curve classes)” value in assay [1] turned out to be 4. In assay [2], the “CC-v2 (curve classes)” value is on record as -1.1 and the Efficacy is -95.341. Moreover, in assay [3], the “AChE inhibition (result in words)” value is recorded as “did not show effects”, the “CC-v2 (curve classes)” value stood at 4 and the Efficacy turned out to be 0.
With `CCCCCCCCCC[N+](C)(CCCCCCCCCC)CCC[Si](OC)(OC)OC.[Cl-]` [Disiquonium chloride], the “CC-v2 (curve classes)” value was 4 in assay [1], 4 in assay [2] and -3 in assay [3]. Also, the results for the Efficacy in assay [2] and in assay [3] were 0 and -65.382, respectively. For the same compound, the IC50 in assay [3] (read-out: IC50) came out at 79.6 µM.
As to `Cc1ccc(CCn2c3c(c4cc(Cl)ccc42)CN(C)CC3)cn1` [Dorastine], the IC50 in assay [1] (IC50 (uM)) is 34.7 µM and 30.9 µM; in assay [3] (IC50 (uM)), 38.9 µM. Moreover, the results for the “CC-v2 (curve classes)” value in assay [2] and in assay [3] were 4 and -2.4, respectively. Further, the Efficacy is recorded as -6.925 in assay [2] and -32.475 in assay [3].
`O=C(C[S+]([O-])Cc1ccco1)NC/C=C\COc1cc(CN2CCCCC2)ccn1` (stereo not drawn) [Lafutidine]: the “CC-v2 (curve classes)” value in assay [1] is recorded as -2.1; in assay [2], 4; in assay [3] it was -2.2. For the same compound, the IC50 in assay [1] (IC50 (uM)) is 38.9 µM and 27.5 µM and 17.4 µM; in assay [3] (IC50 (uM)), 34.7 µM. The Efficacy was 0 in assay [2] and -35.592 in assay [3].
As to `[H]/N=C(\N/C(=N/[H])NCCCCCCNC(=N)NC(=N)Nc1ccc(Cl)cc1)Nc1ccc(Cl)cc1` [Chlorhexidine dihydrochloride], the IC50 was 72.3 µM and 64.4 µM in assay [1] (IC50 (uM)); 22.9 µM in assay [3] (IC50 (uM)). Further, the figures for the “CC-v2 (curve classes)” value in assay [2] and in assay [3] were 4 and -1.1, respectively. The Efficacy in assay [2] is on record as 14.978; in assay [3] it was -89.988.
Regarding `CNC(=O)/C=C(\C)OP(=O)(OC)OC` [Monocrotophos], the “CC-v2 (curve classes)” value in assay [1] is given as -2.1; in assay [2], 4; in assay [3] it was -2.2. For the same compound, the IC50 in assay [1] (IC50 (uM)) is 39.9 µM and 35.6 µM; in assay [3] (IC50 (uM)) it was 63.3 µM. Further, the values for the Efficacy in assay [2] and in assay [3] were -13.186 and -46.284, respectively.
`CCN1C(=CC=Cc2sc3ccccc3[n+]2CC)Sc2ccccc21.[I-]` [3,3'-Diethylthiacarbocyanine iodide]: the “CC-v2 (curve classes)” value in assay [1] was -2.1 and -2.2; in assay [2], 4; in assay [3], -3. The IC50 is 10.7 µM and 15.1 µM in assay [1] (read-out: IC50); 19 µM in assay [3] (read-out: IC50). Also, the Efficacy in assay [2] is 0; in assay [3], -76.506.
As to `CNP(=O)(OC)Oc1ccc(C(C)(C)C)cc1Cl` (stereo not drawn) [Crufomate], the “CC-v2 (curve classes)” value in assay [1] is listed as -2.1; in assay [2] it was 4; in assay [3], -2.2. Also, the half-maximal inhibitory concentration (IC50) in assay [1] (IC50 (uM)) is 71 µM and 39.9 µM and 63.3 µM; in assay [3] (IC50 (uM)), 79.6 µM. The Efficacy in assay [2] is listed as -16.11; in assay [3] it was -70.92.
Take `COP(=S)(OC)Oc1nc(Cl)c(Cl)cc1Cl` [Chlorpyrifos-methyl]: the “CC-v2 (curve classes)” value was 4 and -2.2 in assay [1]; 4 in assay [2]; 4 in assay [3]. In assay [1] (IC50 (uM)), this compound showed an IC50 of 63.3 µM. Further, the Efficacy in assay [2] and in assay [3] was 0 throughout.
Consider `COP(=O)(OC)O/C(=C\Cl)c1cc(Cl)c(Cl)cc1Cl` [Z-Tetrachlorvinphos], for which the “CC-v2 (curve classes)” value is recorded as -2.2 in assay [1], 4 in assay [2] and -2.4 in assay [3]. Also, the IC50 is 63.3 µM and 79.6 µM in assay [1] (IC50 (uM)); 44.8 µM in assay [1] (read-out: IC50); 71 µM in assay [3] (IC50 (uM)). Further, the Efficacy in assay [2] was 0; in assay [3], -30.752.
As to `CCCCC(CC)CNC(=N)NC(=N)NCCCCCCNC(=N)NC(=N)NCC(CC)CCCC` (stereo not drawn) [Alexidine dihydrochloride], the IC50 in assay [1] (IC50 (uM)) turned out to be 43.6 µM; in assay [3] (IC50 (uM)), 17.4 µM. Also, the entries for the “CC-v2 (curve classes)” value in assay [2] and in assay [3] were 4 and -1.1, respectively. Moreover, the Efficacy in assay [2] is given as 11.253; in assay [3] it was -96.324.
On to `CN1CCCN=C1/C=C/c1cccs1.O=C(O)C(O)C(O)C(=O)O` [Pyrantel tartrate], for which the “CC-v2 (curve classes)” value in assay [1] is -2.1; in assay [2], 4; in assay [3], -2.4. For the same compound, the IC50 was 30.9 µM and 27.5 µM and 15.5 µM in assay [1] (read-out: IC50); 38.9 µM in assay [3] (read-out: IC50). In addition, the Efficacy is listed as 0 in assay [2] and -36.527 in assay [3].
For the compound `O=S1OC[C@@H]2[C@H](CO1)[C@]1(Cl)C(Cl)=C(Cl)[C@@]2(Cl)C1(Cl)Cl` (stereo partly drawn) [Endosulfan I], the “CC-v2 (curve classes)” value in assay [1] is -1.1; in assay [2] it was -3; in assay [3], -1.1. For the same compound, the Efficacy in assay [2] is -117.846; in assay [3], -101.477.
